In the NIST ThermoML archive (doi:10.1021/je600515j):
Numbers after ± are expanded uncertainties.

Experiments:
[1] = relative permittivity at zero frequency (dimensionless); conditions: 101.33 kPa, Liquid, dielectric analyzer
[2] = relative permittivity at zero frequency (dimensionless); xn = mol fraction of the nth substance listed; conditions: 101 kPa, Liquid, dielectric analyzer

| SMILES | relative permittivity at zero frequency ([1]; 303.15 K) | relative permittivity at zero frequency ([1]; 308.15 K) | relative permittivity at zero frequency ([1]; 313.15 K) | relative permittivity at zero frequency ([1]; 318.15 K) | relative permittivity at zero frequency ([1]; 323.15 K) | relative permittivity at zero frequency ([1]; 328.15 K) | relative permittivity at zero frequency ([2]; 303.15 K, x1 = 0.2) | relative permittivity at zero frequency ([2]; 303.15 K, x1 = 0.4) | relative permittivity at zero frequency ([2]; 303.15 K, x1 = 0.6) | relative permittivity at zero frequency ([2]; 303.15 K, x1 = 0.8) | relative permittivity at zero frequency ([2]; 308.15 K, x1 = 0.2) | relative permittivity at zero frequency ([2]; 308.15 K, x1 = 0.4) | relative permittivity at zero frequency ([2]; 308.15 K, x1 = 0.6) | relative permittivity at zero frequency ([2]; 308.15 K, x1 = 0.8) | relative permittivity at zero frequency ([2]; 313.15 K, x1 = 0.2) | relative permittivity at zero frequency ([2]; 313.15 K, x1 = 0.4) | relative permittivity at zero frequency ([2]; 313.15 K, x1 = 0.6) | relative permittivity at zero frequency ([2]; 313.15 K, x1 = 0.8) | relative permittivity at zero frequency ([2]; 318.15 K, x1 = 0.2) | relative permittivity at zero frequency ([2]; 318.15 K, x1 = 0.4) | also measured |
| --- | --- | --- | --- | --- | --- | --- | --- | --- | --- | --- | --- | --- | --- | --- | --- | --- | --- | --- | --- | --- | --- |
| CC(O)CO (stereo unspecified) [1,2-propanediol] | 27.87 ± 0.56 | 27.13 ± 0.54 | 26.43 ± 0.53 | 25.76 ± 0.52 | 25.08 ± 0.5 | 24.57 ± 0.49 | – | – | – | – | – | – | – | – | – | – | – | – | – | – | – |
| CN(CCO)CCO [N-methyldiethanolamine] | 21.84 ± 0.44 | 21.33 ± 0.43 | 20.83 ± 0.42 | 20.32 ± 0.41 | 19.79 ± 0.4 | 19.28 ± 0.39 | – | – | – | – | – | – | – | – | – | – | – | – | – | – | – |
| CN(CCO)CCO [N-methyldiethanolamine] + O | – | – | – | – | – | – | 48.77 ± 0.98 | 33.92 ± 0.68 | 26.68 ± 0.53 | 23.44 ± 0.47 | 47.54 ± 0.95 | 33.09 ± 0.66 | 26.03 ± 0.52 | 22.86 ± 0.46 | 46.36 ± 0.93 | 32.16 ± 0.64 | 25.4 ± 0.51 | 22.31 ± 0.45 | 45.14 ± 0.9 | 31.25 ± 0.63 | relative permittivity at zero frequency ([2]; 318.15 K, x1 = 0.6): 24.69 ± 0.49; relative permittivity at zero frequency ([2]; 318.15 K, x1 = 0.8): 21.77 ± 0.44; relative permittivity at zero frequency ([2]; 323.15 K, x1 = 0.2): 43.98 ± 0.88; relative permittivity at zero frequency ([2]; 323.15 K, x1 = 0.4): 30.37 ± 0.61; relative permittivity at zero frequency ([2]; 323.15 K, x1 = 0.6): 23.96 ± 0.48; relative permittivity at zero frequency ([2]; 323.15 K, x1 = 0.8): 21.15 ± 0.42; relative permittivity at zero frequency ([2]; 328.15 K, x1 = 0.2): 42.68 ± 0.85; relative permittivity at zero frequency ([2]; 328.15 K, x1 = 0.4): 29.41 ± 0.59; relative permittivity at zero frequency ([2]; 328.15 K, x1 = 0.6): 23.21 ± 0.46; relative permittivity at zero frequency ([2]; 328.15 K, x1 = 0.8): 20.56 ± 0.41 |
| OCCN(CCO)CCO [triethanolamine] | 28.11 ± 0.56 | 27.41 ± 0.55 | 26.73 ± 0.53 | 26.07 ± 0.52 | 25.41 ± 0.51 | 24.8 ± 0.5 | – | – | – | – | – | – | – | – | – | – | – | – | – | – | – |
| OCCN(CCO)CCO [triethanolamine] + O | – | – | – | – | – | – | 49.25 ± 0.99 | 36.34 ± 0.73 | 31.48 ± 0.63 | 29.67 ± 0.59 | 48.14 ± 0.96 | 35.44 ± 0.71 | 30.66 ± 0.61 | 28.92 ± 0.58 | 47.23 ± 0.94 | 34.53 ± 0.69 | 29.85 ± 0.6 | 28.17 ± 0.56 | 46.33 ± 0.93 | 33.6 ± 0.67 | relative permittivity at zero frequency ([2]; 318.15 K, x1 = 0.6): 29.05 ± 0.58; relative permittivity at zero frequency ([2]; 318.15 K, x1 = 0.8): 27.43 ± 0.55; relative permittivity at zero frequency ([2]; 323.15 K, x1 = 0.2): 45.45 ± 0.91; relative permittivity at zero frequency ([2]; 323.15 K, x1 = 0.4): 32.73 ± 0.65; relative permittivity at zero frequency ([2]; 323.15 K, x1 = 0.6): 28.25 ± 0.57; relative permittivity at zero frequency ([2]; 323.15 K, x1 = 0.8): 26.69 ± 0.53; relative permittivity at zero frequency ([2]; 328.15 K, x1 = 0.2): 44.63 ± 0.89; relative permittivity at zero frequency ([2]; 328.15 K, x1 = 0.4): 31.93 ± 0.64; relative permittivity at zero frequency ([2]; 328.15 K, x1 = 0.6): 27.51 ± 0.55; relative permittivity at zero frequency ([2]; 328.15 K, x1 = 0.8): 26.04 ± 0.52 |

The next lines start with results.

| relative permittivity at zero frequency ([1]; 303.15 K) | relative permittivity at zero frequency ([1]; 308.15 K) | relative permittivity at zero frequency ([1]; 313.15 K) | relative permittivity at zero frequency ([1]; 318.15 K) | relative permittivity at zero frequency ([1]; 323.15 K) | relative permittivity at zero frequency ([1]; 328.15 K) | relative permittivity at zero frequency ([2]; 303.15 K, x1 = 0.2) | relative permittivity at zero frequency ([2]; 303.15 K, x1 = 0.4) | relative permittivity at zero frequency ([2]; 303.15 K, x1 = 0.6) | relative permittivity at zero frequency ([2]; 303.15 K, x1 = 0.8) | relative permittivity at zero frequency ([2]; 308.15 K, x1 = 0.2) | relative permittivity at zero frequency ([2]; 308.15 K, x1 = 0.4) | relative permittivity at zero frequency ([2]; 308.15 K, x1 = 0.6) | relative permittivity at zero frequency ([2]; 308.15 K, x1 = 0.8) | relative permittivity at zero frequency ([2]; 313.15 K, x1 = 0.2) | relative permittivity at zero frequency ([2]; 313.15 K, x1 = 0.4) | relative permittivity at zero frequency ([2]; 313.15 K, x1 = 0.6) | relative permittivity at zero frequency ([2]; 313.15 K, x1 = 0.8) | relative permittivity at zero frequency ([2]; 318.15 K, x1 = 0.2) | relative permittivity at zero frequency ([2]; 318.15 K, x1 = 0.4) | SMILES | also measured |
| --- | --- | --- | --- | --- | --- | --- | --- | --- | --- | --- | --- | --- | --- | --- | --- | --- | --- | --- | --- | --- | --- |
| 20.59 ± 0.41 | 20.11 ± 0.4 | 19.69 ± 0.39 | 19.27 ± 0.39 | 18.88 ± 0.38 | 18.37 ± 0.37 | – | – | – | – | – | – | – | – | – | – | – | – | – | – | CC(C)(N)CO [2-amino-2-methylpropan-1-ol] | – |
| – | – | – | – | – | – | 48.24 ± 0.96 | 33.65 ± 0.67 | 26.63 ± 0.53 | 23.35 ± 0.47 | 47.33 ± 0.95 | 32.99 ± 0.66 | 26.17 ± 0.52 | 22.82 ± 0.46 | 46.43 ± 0.93 | 32.33 ± 0.65 | 25.65 ± 0.51 | 22.28 ± 0.45 | 45.46 ± 0.91 | 31.8 ± 0.64 | CC(C)(N)CO [2-amino-2-methylpropan-1-ol] + O | relative permittivity at zero frequency ([2]; 318.15 K, x1 = 0.6): 25.14 ± 0.5; relative permittivity at zero frequency ([2]; 318.15 K, x1 = 0.8): 21.87 ± 0.44; relative permittivity at zero frequency ([2]; 323.15 K, x1 = 0.2): 44.31 ± 0.89; relative permittivity at zero frequency ([2]; 323.15 K, x1 = 0.4): 31.15 ± 0.62; relative permittivity at zero frequency ([2]; 323.15 K, x1 = 0.6): 24.95 ± 0.5; relative permittivity at zero frequency ([2]; 323.15 K, x1 = 0.8): 21.42 ± 0.43; relative permittivity at zero frequency ([2]; 328.15 K, x1 = 0.2): 43.13 ± 0.86; relative permittivity at zero frequency ([2]; 328.15 K, x1 = 0.4): 30.11 ± 0.6; relative permittivity at zero frequency ([2]; 328.15 K, x1 = 0.6): 24.37 ± 0.49; relative permittivity at zero frequency ([2]; 328.15 K, x1 = 0.8): 21.03 ± 0.42 |
| 13.87 ± 0.28 | 13.75 ± 0.28 | 13.62 ± 0.27 | 13.49 ± 0.27 | 13.36 ± 0.27 | 13.26 ± 0.27 | – | – | – | – | – | – | – | – | – | – | – | – | – | – | CC(O)CNCC(C)O (stereo unspecified) [N-(2-hydroxypropyl)-2-hydroxy-1-propanamine] | – |
| – | – | – | – | – | – | 41.34 ± 0.83 | 24.52 ± 0.49 | 18.46 ± 0.37 | 16.65 ± 0.33 | 40.27 ± 0.81 | 24 ± 0.48 | 18.15 ± 0.36 | 16.45 ± 0.33 | 39.35 ± 0.79 | 23.48 ± 0.47 | 17.84 ± 0.36 | 16.26 ± 0.33 | 38.46 ± 0.77 | 23 ± 0.46 | CC(O)CNCC(C)O (stereo unspecified) [N-(2-hydroxypropyl)-2-hydroxy-1-propanamine] + O | relative permittivity at zero frequency ([2]; 318.15 K, x1 = 0.6): 17.53 ± 0.35; relative permittivity at zero frequency ([2]; 318.15 K, x1 = 0.8): 16.05 ± 0.32; relative permittivity at zero frequency ([2]; 323.15 K, x1 = 0.2): 37.74 ± 0.75; relative permittivity at zero frequency ([2]; 323.15 K, x1 = 0.4): 22.52 ± 0.45; relative permittivity at zero frequency ([2]; 323.15 K, x1 = 0.6): 17.2 ± 0.34; relative permittivity at zero frequency ([2]; 323.15 K, x1 = 0.8): 15.83 ± 0.32; relative permittivity at zero frequency ([2]; 328.15 K, x1 = 0.2): 37.16 ± 0.74; relative permittivity at zero frequency ([2]; 328.15 K, x1 = 0.4): 22.19 ± 0.44; relative permittivity at zero frequency ([2]; 328.15 K, x1 = 0.6): 16.97 ± 0.34; relative permittivity at zero frequency ([2]; 328.15 K, x1 = 0.8): 15.66 ± 0.31 |
| 24.69 ± 0.49 | 24.3 ± 0.49 | 23.86 ± 0.48 | 23.28 ± 0.47 | 22.63 ± 0.45 | 22.13 ± 0.44 | – | – | – | – | – | – | – | – | – | – | – | – | – | – | OCCNCCO [diethanolamine] | – |
| – | – | – | – | – | – | 52.65 ± 1.1 | 39.11 ± 0.78 | 30.57 ± 0.61 | 26.95 ± 0.54 | 51.53 ± 1 | 38.06 ± 0.76 | 29.75 ± 0.6 | 26.41 ± 0.53 | 49.58 ± 0.99 | 36.95 ± 0.74 | 28.91 ± 0.58 | 25.86 ± 0.52 | 48.31 ± 0.97 | 35.81 ± 0.72 | OCCNCCO [diethanolamine] + O | relative permittivity at zero frequency ([2]; 318.15 K, x1 = 0.6): 28.07 ± 0.56; relative permittivity at zero frequency ([2]; 318.15 K, x1 = 0.8): 25.42 ± 0.51; relative permittivity at zero frequency ([2]; 323.15 K, x1 = 0.2): 46.78 ± 0.94; relative permittivity at zero frequency ([2]; 323.15 K, x1 = 0.4): 34.68 ± 0.69; relative permittivity at zero frequency ([2]; 323.15 K, x1 = 0.6): 27.36 ± 0.55; relative permittivity at zero frequency ([2]; 323.15 K, x1 = 0.8): 24.81 ± 0.5; relative permittivity at zero frequency ([2]; 328.15 K, x1 = 0.2): 45.68 ± 0.91; relative permittivity at zero frequency ([2]; 328.15 K, x1 = 0.4): 33.73 ± 0.67; relative permittivity at zero frequency ([2]; 328.15 K, x1 = 0.6): 26.7 ± 0.53; relative permittivity at zero frequency ([2]; 328.15 K, x1 = 0.8): 24.13 ± 0.48 |
